Test results published in patent US7803407B2 (priority 1997, dated 2010).

Experiments:
Assay in all cases: Laboratory disinfection efficacy test (suspension, pour plate count)
Type in all cases: cell-based
[1] = system: pseudomonas aeruginosa strain ATCC 15442; conditions: 15 seconds (ethanol trials) or 1 minute to 30 minutes
Procedure: (§1) The inoculum level for each of the test microorganisms were established in a similar manner. Test strains were grown individually at 35° C. for 24 hr. The cells were harvested by centrifugation at 10,000×g for 10 minutes and washed twice with Butterfield's Phosphate Buffer (BPB of pH 7.2). The cells were resuspended in the Butterfield's Phosphate Buffer to obtain a cell suspension of approximately 1.0×10^8 CFU/mL for each microorganism (target inoculum levels were approx. 10^6 in the final test solution).
(§2) The test microorganisms considered were tested at uniform sampling intervals, The sampling intervals selected were (a) 15 seconds (ethanol trials only), (b) 1 minute, (c) 5 minutes, (d) 10 minutes and (e) 30 minutes.
(§3) Five compounds were tested against the test microorganisms.
(§4) The test microorganisms were tested in accordance with the following test procedures. Duplicate trials were conducted for each test variable. Ninety nine volumes of the test solutions in 250 mL Erlenmeyer flasks were prepared from sterilized deionized water. The solutions were inoculated separately with one mL of 24 hour culture from each of the test strains to yield a flask inoculum level of approximately 1.0×10^6 CFU/mL.
(§5) Solutions were mixed well and kept under constant agitation. Samples of 1.0 mL were removed at the above specified time intervals and placed into 9.0 mL Neutralization Broth media (Difco) to yield an initial dilution of 1:10. All samples were serially diluted in the Butterfield's Phosphate Buffer solution (BPB) and plated onto Tryptic Soy Agar (TSA) in duplicate using the pour plate technique. Percent reductions were calculated for each test solution against each test strain.
(§6) For all tests which utilized either copper or silver ions, concentrated solutions were prepared 24 hours prior to the beginning of the study. Solutions were filtered and determinations for ion content were made. From these stock solutions (copper ion concentration as measured by ICAP and silver ion concentration as measured by Atomic Absorption analysis), final working solutions were made. The target ion concentration for both copper and silver was 5.0 mg/L.

[2] = system: Staphylococcus aureus strain ATCC 6538; conditions: 15 seconds (ethanol trials) or 1 minute to 30 minutes
Procedure: as §1, §2, §3, §4, §5, §6

[3] = system: Salmonella cholerasuis strain ATCC 10708
Procedure: as §1, §2, §3, §4, §5, §6

| SMILES | disinfection effectiveness [1] | disinfection effectiveness [2] | log10 reduction ([3]; 30 minute time period) [log10] | log10 reduction ([3]; 1 minute contact) [log10] | disinfection ([3]; after 30 minutes of contact time) | disinfection effectiveness ([3]; all time periods up to 30 minutes) |
| --- | --- | --- | --- | --- | --- | --- |
| O=C(O)CC(O)(CC(=O)O)C(=O)O [citric acid] | no significant reduction | Neither citric acid nor copper:citric acid was effective | 1.0 | – | – | – |
| CCO [20% ethanol, ethanol] | no significant reduction | No significant reduction | – | ~1.0 | Near complete disinfection | slow, but complete disinfection |
